Values after ≈ are worked out from the molar mass of the structure shown.
Tests used:
[1] = target: β-catenin; design: method as in PMID 11237626; settings: read-out: binding affinity to β-catenin; cited from earlier work
[2] = Solubility in NMR buffer at pH 7.5 by quantitative NMR (maleic acid external standard); type: physicochemical; settings: NMR buffer (Tris/NaCl with 2% DMSO-d6), aqueous buffer, kinetic from dmso stock; NMR buffer pH 7.5; intended concentration 500 or 2000 μM; read-out: Solub. pH 7.5
Method: buffer (Tris 25 mM, pH 7.5, NaCl 150 mM) containing 2% DMSO-d6. […]
Solubility of compounds was determined in NMR buffer at pH 7.5 (see above) by integrating the
signal of 250 µM maleic acid as an external standard relative to the integrals of the ligands. If the
intended concentrations of 500 µM respective 2000 µM were reached the value is reported as >
500 µM or > 2000 µM. […]

[3] = target: T1, β-catenin141–305 (Homo sapiens, UniProt P35222); experiment: Microscale Thermophoresis (MST) screening and Kd determination; type: binding
T1 construct: Amino acids 141-305 of uniprot ID: P35222; GST (cleaved yes); made in house; host or cells: E. coli BL21 (DE3)
T1 sequence (P35222 141-305): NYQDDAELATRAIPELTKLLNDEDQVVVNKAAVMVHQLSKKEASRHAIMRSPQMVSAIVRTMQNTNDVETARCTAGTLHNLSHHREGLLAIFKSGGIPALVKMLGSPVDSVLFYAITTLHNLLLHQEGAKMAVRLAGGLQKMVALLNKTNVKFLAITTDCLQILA
Method: buffer (Tris 25 mM, pH 7.5, NaCl 150 mM) containing 2% DMSO-d6. A stock solution of β-catenin135-663 (12.5 µM) was dialyzed before into Tris 25 mM pH 7.6 NaCl 150 mM and centrifuged at 4° C at 15000 rpm for 20 minutes. Intensity ratios Ilogsy/I1D are derived from scaling of the 1D intensity to the corresponding LOGSY intensity. STD GEMs were acquired with 1.5 µM […]
2.0; and 3.0 seconds for the saturation time build up curves to determine the initial rate constants2.
STD experiments were acquired with on and off resonance saturation at +0.1ppm and -40ppm respectively with 1048 scans each.
Solubility of compounds was determined in NMR buffer at pH 7.5 (see above) by integrating the signal of 250 µM maleic acid as an external standard relative to the integrals of the ligands. If the intended concentrations of 500 µM respective 2000 µM were reached the value is reported as > 500 µM or > 2000 µM. Compound 3 only reached a concentration of 1000 µM according to the QNMR experiment even though 2000 µM was intended, it’s solubility is therefore reported as […]
Microscale Thermophoresis.
Fluorescence labeling of β-catenin141-305 with the NT647 dye was achieved using the Monolith NT.115 Protein Labeling Kit RED-NHS according to the manufacturer’s protocol (NanoTemper Technologies, Munich, Germany). The BCL9 peptide was used as positive control for assay development to achieve a reliably detectable change in the thermophoretic mobility ( ΔFnorm). […]
Final assay conditions were 50 nM NT647 labeled β-catenin141-305 in PBS pH 6.8 supplemented with 100 mM NaNO3, 0.5 mM TCEP and 0.05% Tween-20 at 25° C. Fragment screening detected […]
by MST was carried out as previously described8,9. […] Manual inspection of all MST traces was used to reject non-standard traces stemming from protein aggregation, bleaching, or fluorescence quenching. ΔFnorm values (ΔFnorm=Fhot/Fcold) were calculated and the mean values of the duplicates were compared to the mean values of the DMSO negative control. […] Protein integrity over the entire FBS was monitored by the BCL9 peptide positive control. […]

[4] = target: T1, β-catenin141–305; experiment: 2D 15N NMR (TROSY/HSQC/HMQC) detected binding and Kd titration
Method: The construct for expression of β-catenin141-305 (Amino acids 141-305 of uniprot ID: P35222) is based on the previously reported R4 construct1. The plasmid was used to transform E. coli, strain BL21 (DE3) cells (Invitrogen). For protein expression, an overnight culture in LB-medium supplemented ampicillin (100 µg/mL) at 37 °C was prepared and diluted the next day with fresh 2xYT-medium. At OD600 of 0.8 the culture was cooled down to 18 °C and after induction with 0.5 mM IPTG incubated for 20 h. Cell pellets obtained by centrifugation at 5000 rpm were stored at - 20 °C. Cells were solubilized in buffer A (2X Dulbecco’s PBS; 500 mM NaCl; 10 % Glycerol; 0.5 mM TCEP; cOmplete™ Protease Inhibitor Cocktail; pH 7.4) and disrupted by sonication (Sonopuls, Bandelin) on ice. After 30 min the sonicated lysate was clarified by centrifugation (50 min, 13500 rpm, 4 °C). The supernatant was mixed with 20 mL Glutathione Sepharose® 4B resin (GE Healthcare) slurry, washed in lysis buffer, and steered for 3 hours on ice. The beads were spun down, loaded into a XK16 column cartridge and washed with lysis buffer until baseline. The protein was eluted with buffer B (2X Dulbecco’s PBS; 500 mM NaCl; 10 % Glycerol; 0.5 mM TCEP;; pH 7.4) + 25 mM L-Glutathione reduced. After cleavage with 2000 units Human Alpha Thrombin (Enzyme Research Laboratories) at room temperature overnight, the protein was collected in the flow-through fraction of a second GST run (GSTrap HP 5 mL column; GE Healthcare) using buffer B. The flow-through was concentrated by centrifugation using an Amicon© Ultra 15 mL Centrifugal Filter (Merck Millipore) and loaded onto a HiLoad Superdex S75 column (GE Healthcare) equilibrated with 50 mM Tris; 200 mM NaCl; 3 mM DTT; pH 8.
Fractions were analyzed by SDS-PAGE and fractions containing the desired protein were pooled and concentrated with an Amicon© Ultra 15 mL Centrifugal Filter (Merck Millipore). […]
For confirmation of hits obtained from STD-NMR by 2D 15N TROSY NMR4 a Bruker Avance III 600 MHz instrument with a 5 mm cryo-TCI probe and z-gradient was used. The experimental set up (automated sample preparation and transfer into the magnet by a Tecan Freedom Evo pipetting robot and a Bruker Sample Rail system, respectively) was identical. Each sample contained 25 uM 15N labeled β-catenin141-305 25 mM sodium phosphate, 150 mM sodium chloride, 100 mM sodium nitrate, 0.5mM TCEP pH 6.8 in H2O at 25 °C and 8% (v/v) D2O. The protein was incubated with 500 uM fragment in a 2.5 mm NMR tube at 25 °C and a d6DMSO concentration of 1%. Spectra were recorded with 48 transients and 64 data points in the indirect dimension. Manual comparison of the spectrum in the presence of the to be tested fragment with the DMSO reference spectrum reveal either line broadening or chemical shift perturbation of cross peaks. Both effects are indicative for compound binding. All processing and analysis was done with the Topspin 2.1 software (Bruker BioSpin). Further spectral comparisons were performed with the FELIX software package (Felix NMR Inc.) to combine manual with automated analysis5. […]
700MHz spectrometer equipped with a cryogenically cooled 5mm TCI probe. […]
The
WaterLOGSY pulse sequence was used as described before7. Selective water inversion was achieved with a double excitation sculpting element employing water selective Gaussian refocusing pulses (inversion bandwidth of 0.5 ppm, pulse length of 7.5 ms). The number of scans was set to 2048. Sample concentrations were 0.5 mM ligand and 0.25–10 µM β-catenin135-663 in […]

[5] = target: T1, β-catenin141–305; experiment: Surface Plasmon Resonance (SPR) Kd determination; type: binding; settings: mean of three independent experiments ± SD; 1:1 steady-state fit
Method: Surface Plasmon Resonance (SPR)
A Biacore T200 instrument was used for SPR analysis, β-catenin141-305 was pre-diluted to a concentration of 0.1 mg/mL with 10 mM sodium acetate buffer, pH 5.0 and immobilized at a density of 6000 –7000 response units on flow cell 2 of a Biacore CM5 chip. Carbonic anhydraseII served as a reference protein on flow cell 3 and flow cell 1 was kept blank and used as the reference surface. A mixture of 20 mM Tris, pH 7.5, 150 mM NaCl, 0.5 mM TCEP, 0.005% Tween20, 2 % dimethyl sulfoxide was used as assay buffer. After pre -equilibration of the chip with 10 blank injections, the Kd measurements were performed by injecting a concentration series of analyte (9 concentrations, 1:1 dilutions). BCL9 347-392 served as a positive control. K d values were determined by global fitting of the steady-state response for each of the 9 concentrations to a 1:1 interaction model using the Biacore T200 evaluation software. Each compound was injected three times and […]
average Kd values were calculated from the repeats. The reported data are the mean values of three independent experiments ± standard deviations. […]
Glutamax Supplement (Thermo Fisher Scientific, 35050061) with 10% FCS (GE Healthcare, SH30071.03). Transfections were performed with Lipofectamine LTX Reagent (Thermo Fisher, 15338100) according the manufacturer’s instructions.

[6] = 15N NMR titration, single titration, mean of curves of selected cross peaks ± SD, read-out: HSQC Kd

solubility [2] [µM]	Kd [4, 6] [mM]	Kd [5] [mM]	Compound	also measured
–	–	–	TCF4: transcription factor, natural binding partner of β-catenin	Kd [1]: ~20 nM
> 500	–	–	CC1SCC(=O)Nc2cc(Cl)ccc21 (stereo not shown) [Compound 2]	Kd ([3]; 50 nM labeled β-catenin141–305, single titration): 0.82 ± 0.32 mM; MST binding signal ΔΔF nom ([3]; 500 μM compound, 1 % DMSO, standard deviation with DMSO 1.8‰): 7.5 ‰
> 2000	> 10	> 10	CN1C[C@H](c2cccc(C#N)c2)Oc2ccccc2C1=O [Compound 7]	chemical shift perturbations (CSPs) in 2D 15N NMR ([4]; 500 μM compound): did not show any CSPs
> 2000	2.26 ± 1.26	> 10	CN1C[C@@H](c2ccccc2)Oc2ccccc2C1=O [Compound 4]	–
> 2000	0.915 ± 0.303	1.39 ± 0.046	CN1C[C@@H](c2cccc(C#N)c2)Oc2ccccc2C1=O [Compound 6]	Kd ([4]; titration curve of single cross peak D207, read-out: NMR Kd, cross peak D207): 1.01 mM; Kd ([4]; titration curve of single cross peak G245, read-out: NMR Kd, cross peak G245): 0.575 mM; Kd ([4]; titration curve of single cross peak V208, read-out: NMR Kd, cross peak V208): 1.16 mM
> 2000	> 10	> 10	CN1C[C@H](c2ccccc2)Oc2ccccc2C1=O [Compound 5]	–
1000 (≈ 252 µg/mL)	1.1 ± 0.255	–	CN1CC(c2ccccc2)Nc2ccccc2C1=O (stereo not shown) [Compound 3]	–
